pIC50: −log10 of the molar value.
target: Urease (Canavalia ensiformis, UniProt P07374); test: Inhibition of jack bean urease using urea as substrate assessed as ammonia production after 15 mins by Weatherburn assay
Sequence (P07374 whole entry): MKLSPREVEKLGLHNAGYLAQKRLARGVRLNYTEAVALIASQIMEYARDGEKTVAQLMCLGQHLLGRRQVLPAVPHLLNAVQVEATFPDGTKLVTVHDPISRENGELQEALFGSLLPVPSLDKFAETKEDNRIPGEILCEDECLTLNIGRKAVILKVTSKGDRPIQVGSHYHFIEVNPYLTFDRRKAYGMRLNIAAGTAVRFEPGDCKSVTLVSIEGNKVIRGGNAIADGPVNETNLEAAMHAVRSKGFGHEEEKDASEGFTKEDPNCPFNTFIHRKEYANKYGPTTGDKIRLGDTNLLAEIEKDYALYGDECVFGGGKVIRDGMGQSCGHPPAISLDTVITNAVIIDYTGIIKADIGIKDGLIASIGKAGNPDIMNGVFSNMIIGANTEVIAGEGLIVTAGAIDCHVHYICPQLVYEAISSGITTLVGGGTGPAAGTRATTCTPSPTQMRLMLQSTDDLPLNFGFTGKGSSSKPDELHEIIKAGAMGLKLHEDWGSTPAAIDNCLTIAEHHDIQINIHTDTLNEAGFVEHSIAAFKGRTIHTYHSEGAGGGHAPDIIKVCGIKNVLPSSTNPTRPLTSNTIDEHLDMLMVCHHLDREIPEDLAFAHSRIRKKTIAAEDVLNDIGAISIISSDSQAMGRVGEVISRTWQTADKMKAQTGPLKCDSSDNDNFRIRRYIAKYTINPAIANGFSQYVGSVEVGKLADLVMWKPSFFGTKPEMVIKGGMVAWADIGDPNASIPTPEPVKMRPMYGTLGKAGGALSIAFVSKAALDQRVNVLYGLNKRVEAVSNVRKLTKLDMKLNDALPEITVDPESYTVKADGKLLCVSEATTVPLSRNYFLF

In order of falling pIC50:
1. O=C1Nc2ccc(Cl)cc2/C1=C\c1ccc(C(=O)N/N=C/c2c(O)cc(O)cc2O)cc1  4.89
2. O=C1Nc2ccc(Cl)cc2/C1=C\c1ccc(C(=O)N/N=C/c2cc(O)cc(O)c2)cc1  4.72
3. C/C(=N\NC(=O)c1ccc(/C=C2/C(=O)Nc3ccc(Cl)cc32)cc1)c1c(O)cc(O)cc1O  4.45
4. CC(=O)NO [ACETOHYDROXAMIC ACID]  4.38
5. O=C1Nc2ccc(Cl)cc2/C1=C\c1ccc(C(=O)N/N=C/c2ccc(O)cc2O)cc1  4.37
6. O=C1Nc2ccc(Cl)cc2/C1=C\c1ccc(C(=O)N/N=C/c2cc(O)ccc2O)cc1  4.27
7. O=C1Nc2ccc(Cl)cc2/C1=C\c1ccc(C(=O)N/N=C/c2ccc(O)c(O)c2)cc1  4.15
8. C/C(=N\NC(=O)c1ccc(/C=C2/C(=O)Nc3ccc(Cl)cc32)cc1)c1ccccc1O  4.14
9. COc1ccc(O)c(/C=N/NC(=O)c2ccc(/C=C3/C(=O)Nc4ccc(Cl)cc43)cc2)c1  4.09
10. O=C1Nc2ccc(Cl)cc2/C1=C\c1ccc(C(=O)N/N=C/c2ccc(O)cc2)cc1  4.07
11. O=C1Nc2ccc(Cl)cc2/C1=C\c1ccc(C(=O)N/N=C/c2ccc([N+](=O)[O-])cc2)cc1  4.03
12. O=C1Nc2ccc(Cl)cc2/C1=C\c1ccc(C(=O)N/N=C/c2cccc(O)c2)cc1  3.99
13. O=C1Nc2ccc(Cl)cc2/C1=C\c1ccc(C(=O)N/N=C/c2ccc(Cl)cc2)cc1  3.96
14. O=C1Nc2ccc(Cl)cc2/C1=C\c1ccc(C(=O)N/N=C/c2cccc(O)c2O)cc1  3.96
15. O=C1Nc2ccc(Cl)cc2/C1=C\c1ccc(C(=O)N/N=C/c2ccccc2O)cc1  3.92
16. O=C1Nc2ccc(Cl)cc2/C1=C\c1ccc(C(=O)N/N=C/c2cc(O)c(O)cc2O)cc1  3.90
17. COc1ccc(/C=N/NC(=O)c2ccc(/C=C3/C(=O)Nc4ccc(Cl)cc43)cc2)cc1  3.84
18. COc1ccc(/C=N/NC(=O)c2ccc(/C=C3/C(=O)Nc4ccc(Cl)cc43)cc2)c(O)c1  3.84
19. O=C1Nc2ccc(Cl)cc2/C1=C\c1ccc(C(=O)N/N=C/c2cccc([N+](=O)[O-])c2)cc1  3.83

Source: ChEMBL document CHEMBL3600348, “Synthesis of novel derivatives of oxindole, their urease inhibition and molecular docking studies” (Bioorg Med Chem Lett, 2015)
